According to the METLIN SMRT retention time set (Domingo-Almenara et al. 2019):

Assay: gradient 5% acetonitrile 3 min, to 50% in 2 min, to 85% in 15 min, held 3 min, 100 µL/min
Details: column: Zorbax Extend-C18 2.1 x 50 mm; eluents: water / acetonitrile, 0.1% formic acid
How it was run: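 Each retention time is based on an adduct peak selected computationally and verified by manual inspection. Measurements used HPLC–quadrupole time-of-flight mass spectrometry in positive and negative ionization mode on mixtures of ~100 pure standards. Chromatography ran on a Zorbax Extend-C18 column (2.1 × 50 mm, 1.8 μm) at 100 μL/min with water and acetonitrile, each containing 0.1% formic acid, and dead and dwell volumes of 40 μL and 900 μL.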

SMILES: O=C(NC(c1ccccc1)c1nnc(N2CCOCC2)o1)c1ccc2c(c1)OCO2 (configuration not stated)
- RP-LC retention time: 726 s

SMILES: CCCN1C(=O)c2cc(S(=O)(=O)Nc3ccc(F)cc3F)ccc2Oc2cccnc21
- RP-LC retention time: 1050 s

SMILES: CC(C)c1noc(-c2ccnc(-n3cnc(C(=O)NCC4CC4)c3)c2)n1
- RP-LC retention time: 879 s

SMILES: O=C(CN1C(=O)C2CCCCN2c2ccc(C(=O)N3CCCC3)cc21)NC1CCCC1 (configuration not stated)
- RP-LC retention time: 732 s

SMILES: COc1ccc(-c2cn3c(CC(=O)N4CCc5ccccc54)csc3n2)cc1OC
- RP-LC retention time: 748 s

SMILES: CCOC(=O)c1c(C)[nH]c(C(=O)N2CCCC(C(=O)NCc3ccc4c(c3)OCO4)C2)c1C (configuration not stated)
- RP-LC retention time: 770 s

SMILES: Cc1cc(=O)n(CC(=O)Nc2ccc(Cl)cc2)c(N2CCc3ccccc3C2)n1
- RP-LC retention time: 855 s

SMILES: COc1ccccc1-c1noc(C2CCCN2C(=O)Nc2ccccc2C(F)(F)F)n1 (configuration not stated)
- RP-LC retention time: 933 s

SMILES: Cc1ccccc1-c1cn2ccn(-c3cccc(Cl)c3)c(=O)c2n1
- RP-LC retention time: 883 s

SMILES: O=C(NCCc1ccccn1)C1CCc2nc(N3CCOCC3)ncc2C1 (configuration not stated)
- RP-LC retention time: 645 s

SMILES: Cc1cc2c(c(=O)n(-c3ccccc3)c(=O)n2CC(=O)Nc2ccc(Cl)cc2)n1C
- RP-LC retention time: 885 s

SMILES: O=C(CSCc1ccccc1)NCC1CCN(c2ncccn2)CC1
- RP-LC retention time: 703 s

SMILES: CCOC(=O)c1c(C)c(CCC(=O)NCCN2CCCCCC2)n(C)c1C
- RP-LC retention time: 645 s

SMILES: CN(C)C(=O)c1csc(S(=O)(=O)N2CCC(C(=O)NC3CCCC3)CC2)c1
- RP-LC retention time: 696 s

SMILES: CCn1c(N2CCN(C(=O)Nc3cc(OC)c(OC)c(OC)c3)CC2)nc2ccccc21
- RP-LC retention time: 623 s

SMILES: CCOc1ccc(NC(=O)Cn2c(N)nc(C)cc2=O)cc1
- RP-LC retention time: 574 s

SMILES: COc1ccc(CNC(=O)CN2CCc3[nH]c4cc5c(cc4c(=O)c3C2)OCCO5)cc1OC
- RP-LC retention time: 585 s

SMILES: Cc1ccccc1-n1c(Cn2ncc3c(N)ncnc32)nc2cccc(C)c2c1=O
- RP-LC retention time: 719 s

SMILES: O=C(NCCN1CCOCC1)c1ccc(-c2c(-c3ccc(F)cc3)ncn2C2CCCC2)o1
- RP-LC retention time: 592 s

SMILES: O=C(CN1C(=O)C2CCCCN2c2ccc(C(=O)N3CCOCC3)cc21)NCc1ccc(F)cc1 (configuration not stated)
- RP-LC retention time: 734 s

SMILES: COc1ccccc1NC(=O)C(C)C1CCN(C(=O)Nc2ccc(Cl)cc2)CC1 (configuration not stated)
- RP-LC retention time: 938 s

SMILES: O=C(c1ccc(CS(=O)c2cccc(Cl)c2)o1)N1CCN(c2ccccn2)CC1 (configuration not stated)
- RP-LC retention time: 602 s

SMILES: Cc1cccc(-c2ncccc2CNS(=O)(=O)c2ccccc2C)c1
- RP-LC retention time: 725 s

SMILES: CC(C)(C)CC(=O)NCCn1c(=O)n(Cc2ccc(F)cc2)c2cccnc21
- RP-LC retention time: 808 s

SMILES: O=C(CCc1ccccc1)Nc1c(-c2ccc(F)cc2)nc2ccccn12
- RP-LC retention time: 687 s

SMILES: CCN1CCN(C(=O)c2cnn(-c3cc(-c4nc(C)no4)ccn3)c2C)CC1
- RP-LC retention time: 585 s

SMILES: COc1ccc(NC(=O)C2=Cc3ccccc3OC=C2)c(OC)c1
- RP-LC retention time: 1030 s

SMILES: CCOC(=O)c1nc(NCCc2ccc(C)cc2)c2c(CC)noc2n1
- RP-LC retention time: 1080 s

SMILES: COc1ccc(NC(=O)c2c(-c3c(F)cccc3Cl)noc2C)cc1[N+](=O)[O-]
- RP-LC retention time: 992 s

SMILES: Cc1cccnc1NC(=O)C1CCCN(c2ccc3cc(S(=O)(=O)N4CCCC4)ccc3n2)C1 (configuration not stated)
- RP-LC retention time: 624 s

SMILES: CC(NC(=O)C1CCN(C(=O)c2ncn3c2COC(c2ccc(F)cc2)C3)CC1)c1ccc(F)cc1 (configuration not stated)
- RP-LC retention time: 790 s

SMILES: Cc1ccc(C(C)NC(=O)c2cn(-c3ccc(NC(=O)CC(C)C)cn3)cn2)cc1 (configuration not stated)
- RP-LC retention time: 872 s

SMILES: Cc1ccc(Sc2nccnc2N2CCCC(C(=O)N3CCN(c4cccc(C)c4)CC3)C2)cc1 (configuration not stated)
- RP-LC retention time: 1310 s

SMILES: CC(CNC(=O)CN1C(=O)C2CCCCN2c2ccc(S(=O)(=O)N(C)C)cc21)c1ccccc1 (configuration not stated)
- RP-LC retention time: 943 s

SMILES: Clc1cccc(CN2CCN(c3cnn4c(C5CC5)nnc4c3)CC2)c1
- RP-LC retention time: 750 s

SMILES: CCn1c(CNC(=O)C2CCC2)nc2c1CN(S(=O)(=O)c1ccc(F)cc1)CC2
- RP-LC retention time: 644 s

SMILES: O=C(NCc1ccccn1)C1CCN(c2cnc(N3CCCC3)nc2)CC1
- RP-LC retention time: 547 s

SMILES: Cc1ccccc1OCC(O)CN1CCN(Cc2ccc3c(c2)OCO3)CC1 (configuration not stated)
- RP-LC retention time: 566 s

SMILES: O=C(NC1CC1)c1ccccc1OCC1CCCN(Cc2cc3ccccc3nc2Cl)C1 (configuration not stated)
- RP-LC retention time: 650 s

SMILES: O=C(NCc1cccc(F)c1)c1cc(N2CCCC2)n2nccc2n1
- RP-LC retention time: 946 s

SMILES: Cc1nn(-c2ccccc2)c(C)c1S(=O)(=O)N1CCC(C(=O)Nc2cccc(Cl)c2C)CC1
- RP-LC retention time: 1000 s

SMILES: Cc1nc(-c2cc3ccccc3nc2N2CCN(c3ccc(F)cc3)CC2)no1
- RP-LC retention time: 1110 s

SMILES: CCn1cc(CN2CCC(C(=O)NCc3ccco3)CC2)c2ccccc21
- RP-LC retention time: 658 s

SMILES: CN(C)C/C=C/C(=O)Nc1cc2c(Nc3ccc(F)c(Cl)c3)ncnc2cc1O[C@H]1CCOC1
- RP-LC retention time: 632 s

SMILES: CCc1ccc(S(=O)(=O)N2CCN(CCc3cn(CC)c4ncccc34)CC2)cc1
- RP-LC retention time: 690 s

SMILES: CCOC(=O)c1sc(NC(=O)C2CCCN(S(C)(=O)=O)C2)nc1-c1ccccc1 (configuration not stated)
- RP-LC retention time: 863 s

SMILES: O=C(Cn1nc(C(=O)N2CCCC2)c2ccccc21)N1CCN(C2CCCCC2)CC1
- RP-LC retention time: 597 s

SMILES: O=S(=O)(c1ccc2nncn2c1)N(Cc1cc(F)cc(F)c1)c1cccc(F)c1
- RP-LC retention time: 895 s

SMILES: COCCCNC(=O)C1CCN(Cc2cc3ccccc3n2Cc2ccccc2Cl)CC1
- RP-LC retention time: 713 s

SMILES: Cc1nn(CC(=O)NCC2CCCO2)c(=O)c2nc(-c3ccccc3)sc12 (configuration not stated)
- RP-LC retention time: 709 s

SMILES: Cc1nn2c(CNC(=O)c3cccnc3)c(-c3ccccc3)nc2s1
- RP-LC retention time: 655 s

SMILES: COc1ccc(CC(=O)N2CCCC2COc2ccc(C(=O)N3CCCC3)cc2)cc1 (configuration not stated)
- RP-LC retention time: 824 s

SMILES: O=C1NCCCCCN(C(=O)Nc2ccccc2F)[C@H]2CCCC[C@@H]12
- RP-LC retention time: 815 s

SMILES: Cc1ccc(N2C(=O)C3N=NN(Cc4nc(-c5ccc(OC(C)C)cc5)no4)C3C2=O)cc1 (configuration not stated)
- RP-LC retention time: 1110 s

SMILES: Cn1c(CCNC(=O)c2cn3ccccc3n2)nc2ccccc21
- RP-LC retention time: 556 s

SMILES: O=C(COc1ccccc1)N1CCC(OCc2nc(C3CC3)no2)CC1
- RP-LC retention time: 817 s

SMILES: CCn1c(N2CCC(C(=O)NC3CCCCC3)CC2)cc(=O)n(C)c1=O
- RP-LC retention time: 784 s

SMILES: CCCOc1ccc(C2C(C(=O)N3CCOCC3)=C(C)NC3=C2C(=O)CCC3)cc1OC (configuration not stated)
- RP-LC retention time: 964 s

SMILES: CCOc1ccccc1NC(=O)N1CC(n2ccnc2)C1
- RP-LC retention time: 594 s

SMILES: CC1Oc2ccc(-c3csc(NC(=O)C(C)(C)C)n3)cc2N(C)C1=O (configuration not stated)
- RP-LC retention time: 963 s

SMILES: COC(=O)c1ccc(-c2nc3cnccn3c2Nc2ccc3c(c2)OCCO3)cc1
- RP-LC retention time: 813 s

SMILES: CCc1nnc([C@@H]2CC(F)(F)CN2C(=O)c2nccn2C)o1
- RP-LC retention time: 631 s

SMILES: COc1cccc(NC(=O)N2CCC3(CC2)NC(=O)c2cc(Cl)ccc2N3C)c1
- RP-LC retention time: 780 s

SMILES: CN(C)c1ccc(C(CNC(=O)c2ccccc2[N+](=O)[O-])N2CCOCC2)cc1 (configuration not stated)
- RP-LC retention time: 560 s

SMILES: CNCC[C@H](Oc1cccc2ccccc12)c1cccs1
- RP-LC retention time: 788 s

SMILES: CC1Cc2ccccc2N1C(=O)Cc1csc2nc(-c3ccccc3)cn12 (configuration not stated)
- RP-LC retention time: 881 s

SMILES: CCC(=O)N1CCN(c2nc3c(s2)CC(C(=O)Nc2cc(F)ccc2F)CC3)CC1 (configuration not stated)
- RP-LC retention time: 633 s

SMILES: COC(=O)c1c(C)[nH]c(C(=O)N2CCC(CC(=O)N3CCOCC3)CC2)c1C
- RP-LC retention time: 636 s

SMILES: CCOC(=O)c1[nH]c(C)c(C(=O)C(C)N(C(=O)c2cccc(F)c2)C(C)C)c1C (configuration not stated)
- RP-LC retention time: 883 s

SMILES: N#CCc1cnc2ccccc2n1
- RP-LC retention time: 720 s

SMILES: Fc1ccc(CN2CCC[C@H]2c2nc(C3CCOCC3)n[nH]2)c(Cl)c1
- RP-LC retention time: 586 s

SMILES: CCc1ccc(Oc2nccnc2N2CCC(C(=O)N3CCN(c4ccccn4)CC3)CC2)cc1
- RP-LC retention time: 734 s

SMILES: CCCC(=O)NCCn1c(=O)n(Cc2cccc(C)c2)c2cccnc21
- RP-LC retention time: 759 s

SMILES: CCOC(=O)N1CCN(C(=O)Cc2c(C)nn(-c3nc(-c4ccccc4)cs3)c2C)CC1
- RP-LC retention time: 998 s

SMILES: Cc1ccc(-c2nc3cnccn3c2NCCC(=O)NCc2cccs2)cc1
- RP-LC retention time: 700 s

SMILES: Cc1nc(-c2ccc3c(c2)n(CC(=O)NCc2ccc4c(c2)OCO4)c(=O)n3C(C)C)no1
- RP-LC retention time: 619 s

SMILES: O=C(NCCc1csc(-c2cccs2)n1)C1CCN(C(=O)Cc2cccc(F)c2)CC1
- RP-LC retention time: 797 s

SMILES: Cc1ccc(C)c(-c2coc(-c3ccc(NC(=O)COc4ccc(F)cc4)cc3)n2)c1
- RP-LC retention time: 1310 s

SMILES: Cc1csc(-c2cc(S(=O)(=O)N3CCOCC3)cn2CC(=O)N2CCCCC2)n1
- RP-LC retention time: 846 s

SMILES: O=S(=O)(c1ccc(-c2noc(-c3cccc(Cl)c3)n2)cc1)N1CCOCC1
- RP-LC retention time: 1170 s

SMILES: CCOc1ccc(-c2noc(N3CCC(C(=O)N4CCCCC4)CC3)n2)cc1OC
- RP-LC retention time: 889 s

SMILES: COc1ncc(C(=O)Nc2ccc(F)c(Cl)c2)c(C)n1
- RP-LC retention time: 825 s

SMILES: c1ccc2c(c1)CCN(c1ncnc3c1CCC3)C2
- RP-LC retention time: 650 s

SMILES: Cc1noc(-c2ccnc(-n3cnc(C(=O)NC4CCCCCC4)c3)c2)n1
- RP-LC retention time: 915 s

SMILES: O=C(C1CCN(c2cncnc2N2CCOCC2)CC1)N1CCC(Cc2ccccc2)CC1
- RP-LC retention time: 700 s

SMILES: CC(C)n1nc(CO)c2c1CCN(C(=O)C1COc3ccccc3O1)C2 (configuration not stated)
- RP-LC retention time: 667 s

SMILES: CC1(C)N=C(N)N=C(N)N1c1ccc(CCCCc2ccc(Cl)cc2Cl)cc1
- RP-LC retention time: 878 s
